One assay concerns KB. As to the kind of experiment: Cytotoxicity in human epidermoid carcinoma of the nasopharynx(KB) cells. The assay is classed as functional, cell-based.
The next assay concerns P388. As to the kind of experiment: Cytotoxicity in murine lymphocytic leukemia (P388) cells. Format: functional, cell-based. Conditions: Mus musculus.
Assay [1] has as its system Mus musculus. Kind of assay: Antitumor activity against P388 leukemia cells was determined in mice at a dose 0.4 mg/kg administered i.p. on days 1-5. The assay is classed as functional. Conditions: route intraperitoneal.
The test system of assay [2] is Mus musculus. Kind of assay: Antitumor activity against P388 leukemia cells was determined in mice at a dose 1.6 mg/kg administered i.p. on days 1-5. Conditions: route intraperitoneal. Format: functional.
The test system of assay [3] is Mus musculus. Kind of assay: Antitumor activity against P388 leukemia cells was determined in mice at a dose 6.25 mg/kg administered i.p. on days 1-5. Format: functional. Conditions: route intraperitoneal.
In assay [4] the test system is Mus musculus. Kind of assay: Antitumor activity against P388 leukemia cells was determined in mice at a dose 12.5 mg/kg administered i.p. on days 1-5. Format: functional. Conditions: route intraperitoneal.
Assay [5] relates to Mus musculus. As to the kind of experiment: Antitumor activity against P388 leukemia cells was determined in mice at a dose 6.25 mg/kg administered i.p. on days 1-5; Toxic. Also on record: dose 6.25 mg/kg. The assay is classed as functional, organism-based.
For assay [6], the system named is Mus musculus. Kind of assay: Antitumor activity against P388 leukemia cells was determined in mice at a dose 0.8 mg/kg administered i.p. on days 1-5. Conditions: route intraperitoneal. The assay is classed as functional.
Assay [7] deals with Mus musculus. Kind of assay: Antitumor activity against P388 leukemia cells was determined in mice at a dose 3.13 mg/kg administered i.p. on days 1-5. The assay is classed as functional. Conditions: route intraperitoneal.
The subject of assay [8] is Mus musculus. Kind of assay: Antitumor activity against P388 leukemia cells was determined in mice at a dose 25.0 mg/kg administered i.p. on days 1-5. Conditions: route intraperitoneal. Format: functional.

SMILES strings stand for the structures. In brackets after ≈: the same amount, converted by molar mass.

This is an account of results in ChEMBL document CHEMBL1127926, “Preparation and antitumor activity of [N-alkyl-Ala2]RA-VII, antitumor cyclic hexapeptide” (Bioorg Med Chem Lett, 1994).

On to `CCCCCN1C(=O)[C@@H](C)NC(=O)[C@@H]2Cc3ccc(OC)c(c3)Oc3ccc(cc3)C[C@@H](C(=O)N2C)N(C)C(=O)[C@H](C)NC(=O)[C@H](Cc2ccc(OC)cc2)N(C)C(=O)[C@@H]1C`, for which the values for the IC50 in the assay with KB and with P388 were 0.063 µg/mL (≈ 0.0749 µM) and 0.018 µg/mL (≈ 0.0214 µM), respectively.
With `CCCN1C(=O)[C@@H](C)NC(=O)[C@@H]2Cc3ccc(OC)c(c3)Oc3ccc(cc3)C[C@@H](C(=O)N2C)N(C)C(=O)[C@H](C)NC(=O)[C@H](Cc2ccc(OC)cc2)N(C)C(=O)[C@@H]1C`, the IC50 (in general, the concentration that gives 50% inhibition) with KB was 0.0097 µg/mL (≈ 0.0119 µM); in the assay on P388, 0.0032 µg/mL (≈ 0.00394 µM).
Consider `CC/C=C/CN1C(=O)[C@@H](C)NC(=O)[C@@H]2Cc3ccc(OC)c(c3)Oc3ccc(cc3)C[C@@H](C(=O)N2C)N(C)C(=O)[C@H](C)NC(=O)[C@H](Cc2ccc(OC)cc2)N(C)C(=O)[C@@H]1C`, for which the IC50 is 0.022 µg/mL (≈ 0.0262 µM) with KB and 0.01 µg/mL (≈ 0.0119 µM) with P388. The results for the T/C in the assay on Mus musculus [1], in the assay on Mus musculus [2] and in the assay with Mus musculus [3] were 113%, 125% and 155%, respectively.
In the case of `C=CCN1C(=O)[C@@H](C)NC(=O)[C@@H]2Cc3ccc(OC)c(c3)Oc3ccc(cc3)C[C@@H](C(=O)N2C)N(C)C(=O)[C@H](C)NC(=O)[C@H](Cc2ccc(OC)cc2)N(C)C(=O)[C@@H]1C`, the results for the IC50 in the assay on KB and in the assay on P388 were 0.013 µg/mL (≈ 0.016 µM) and 0.015 µg/mL (≈ 0.0185 µM), respectively.
For `COc1ccc(C[C@H]2C(=O)N[C@@H](C)C(=O)N(C)[C@H]3Cc4ccc(cc4)Oc4cc(ccc4OC)C[C@@H](C(=O)N[C@H](C)C(=O)N(CC=C(C)C)[C@@H](C)C(=O)N2C)N(C)C3=O)cc1`, the IC50 in the assay on KB turned out to be 0.0064 µg/mL (≈ 0.00763 µM); with P388, 0.0058 µg/mL (≈ 0.00691 µM). Further, the T/C (commonly the result in the treated group divided by that in the control group, in per cent) in the assay on Mus musculus [1] is on record as 123%; in the assay on Mus musculus [2], 132%; in the assay with Mus musculus [4], 174%; in the assay on Mus musculus [3], 160%.
Take `CCN1C(=O)[C@@H](C)NC(=O)[C@@H]2Cc3ccc(OC)c(c3)Oc3ccc(cc3)C[C@@H](C(=O)N2C)N(C)C(=O)[C@H](C)NC(=O)[C@H](Cc2ccc(OC)cc2)N(C)C(=O)[C@@H]1C`: the IC50 in the assay on KB and with P388 was 0.035 µg/mL (≈ 0.0438 µM) throughout.
As to `COc1ccc(C[C@H]2C(=O)N[C@@H](C)C(=O)N(C)[C@H]3Cc4ccc(cc4)Oc4cc(ccc4OC)C[C@@H](C(=O)N[C@H](C)C(=O)N[C@@H](C)C(=O)N2C)N(C)C3=O)cc1`, the IC50 with KB is 0.0023 µg/mL (≈ 0.00298 µM); in the assay with P388, 0.0013 µg/mL (≈ 0.00169 µM). Also, the Activity result in the assay on Mus musculus [5] is “Toxic”. Further, the T/C amounted to 144% in the assay on Mus musculus [1], 144% with Mus musculus [6], 152% with Mus musculus [2] and 163% with Mus musculus [7].
Take `C/C=C/CN1C(=O)[C@@H](C)NC(=O)[C@@H]2Cc3ccc(OC)c(c3)Oc3ccc(cc3)C[C@@H](C(=O)N2C)N(C)C(=O)[C@H](C)NC(=O)[C@H](Cc2ccc(OC)cc2)N(C)C(=O)[C@@H]1C`: the IC50 was determined as 0.018 µg/mL (≈ 0.0218 µM) in the assay on KB and 0.0076 µg/mL (≈ 0.00921 µM) in the assay on P388. In addition, the T/C in the assay with Mus musculus [1] is recorded as 112%; with Mus musculus [2], 127%; with Mus musculus [3], 155%.
As to `COc1ccc(C[C@H]2C(=O)N[C@@H](C)C(=O)N(C)[C@H]3Cc4ccc(cc4)Oc4cc(ccc4OC)C[C@@H](C(=O)N[C@H](C)C(=O)N(C)[C@@H](C)C(=O)N2C)N(C)C3=O)cc1`, the values for the IC50 in the assay with KB and in the assay on P388 were 0.0077 µg/mL (≈ 0.00981 µM) and 0.0012 µg/mL (≈ 0.00153 µM), respectively.
Consider `CCCCN1C(=O)[C@@H](C)NC(=O)[C@@H]2Cc3ccc(OC)c(c3)Oc3ccc(cc3)C[C@@H](C(=O)N2C)N(C)C(=O)[C@H](C)NC(=O)[C@H](Cc2ccc(OC)cc2)N(C)C(=O)[C@@H]1C`, for which the IC50 in the assay with KB worked out at 0.024 µg/mL (≈ 0.029 µM); with P388, 0.01 µg/mL (≈ 0.0121 µM).
For the compound `COc1ccc(C[C@H]2C(=O)N[C@@H](C)C(=O)N(C)[C@H]3Cc4ccc(cc4)Oc4cc(ccc4OC)C[C@@H](C(=O)N[C@H](C)C(=O)N(C/C=C(\C)CCC=C(C)C)[C@@H](C)C(=O)N2C)N(C)C3=O)cc1`, the IC50 stood at 0.062 µg/mL (≈ 0.0683 µM) in the assay on KB and 0.044 µg/mL (≈ 0.0485 µM) with P388. Further, the T/C in the assay with Mus musculus [1] was 119%; in the assay with Mus musculus [2] it was 131%; with Mus musculus [8] it was 164%; with Mus musculus [3], 148%.
In the case of `COc1ccc(C[C@H]2C(=O)N[C@@H](C)C(=O)N(C)[C@H]3Cc4ccc(cc4)Oc4cc(ccc4OC)C[C@@H](C(=O)N[C@H](C)C(=O)N(C/C=C/c4ccccc4)[C@@H](C)C(=O)N2C)N(C)C3=O)cc1`, the results for the IC50 in the assay with KB and in the assay with P388 were 0.03 µg/mL (≈ 0.0338 µM) and 0.0094 µg/mL (≈ 0.0106 µM), respectively.
As for `C=C(C)CN1C(=O)[C@@H](C)NC(=O)[C@@H]2Cc3ccc(OC)c(c3)Oc3ccc(cc3)C[C@@H](C(=O)N2C)N(C)C(=O)[C@H](C)NC(=O)[C@H](Cc2ccc(OC)cc2)N(C)C(=O)[C@@H]1C`, the IC50 was determined as 0.027 µg/mL (≈ 0.0327 µM) in the assay with KB and 0.009 µg/mL (≈ 0.0109 µM) in the assay on P388.
